According to PMC4841940 (Molecular cell, 2016):
Entries after “also recorded” stand apart in the source; their conditions may differ.

Tests used:
[1] = target: second bromodomain of BRD3 (UniProt Q15059); assay: ITC
[2] = target: AF9 YEATS domain, wild type (UniProt P42568); assay: ITC
[3] = system: FLAG-AF9 (WT) recruitment in RAW264.7 cells; assay: FLAG-ChIP-qPCR, FLAG-AF9; type: cell-based, mouse; conditions: increasing concentrations of crotonate, then LPS; Rsad2, Il6, Ifit1, Cmpk2, Gbp2
[4] = system: FLAG-AF9 (F59A) recruitment in RAW264.7 cells; assay: FLAG-ChIP-qPCR, FLAG-AF9; type: cell-based, mouse; conditions: increasing concentrations of crotonate, then LPS; Rsad2, Il6, Ifit1, Cmpk2, Gbp2
RAW264.7 cells, AF9 KO = assay: qRT-PCR of crotonate-responsive genes, AF9 knockout; type: cell-based, mouse; conditions: crotonate pre-treatment before LPS
[5] = system: AF9 recruitment to genes in RAW264.7 cells; assay: FLAG-AF9 ChIP-seq in RAW264.7 cells; type: cell-based, mouse; conditions: 10mM crotonate pre-treatment then LPS
[6] = system: histone crotonylation (H3K18cr) / crotonyl-CoA; conditions: ref Sabari et al., 2015, cited from earlier work
[7] = system: RAW264.7 cells, AF9KO + F59A; assay: qRT-PCR, AF9 KO with F59A addback; type: cell-based, mouse; conditions: crotonate pre-treatment before LPS
[8] = system: RAW264.7 cells, AF9KO + WT; assay: qRT-PCR, AF9 KO with wild type AF9 addback; type: cell-based, mouse; conditions: crotonate pre-treatment before LPS
[9] = system: RAW264.7 cells (parental); assay: qRT-PCR of crotonate-responsive genes, parental cells; type: cell-based, mouse; conditions: crotonate pre-treatment before LPS

Chain of UniProt Q15059 (Q15059 307-416): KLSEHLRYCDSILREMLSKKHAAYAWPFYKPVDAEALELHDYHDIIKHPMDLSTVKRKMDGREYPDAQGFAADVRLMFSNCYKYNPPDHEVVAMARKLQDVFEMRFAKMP
Chain of UniProt P42568 (P42568 1-138): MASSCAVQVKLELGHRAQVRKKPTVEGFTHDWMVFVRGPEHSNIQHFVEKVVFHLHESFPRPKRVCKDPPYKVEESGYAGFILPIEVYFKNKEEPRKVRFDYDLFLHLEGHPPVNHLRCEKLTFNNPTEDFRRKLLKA

H3K18bu peptide (acylation series of Figure 4C)
fold reduced affinity against H3K18ac [1]: 38 fold

histone H3_(1–15)K9su peptide (from UniProt P68431 2-16)
Kd [2]: 500 µM

C/C=C/C(=O)O [crotonate]
AF9 (WT) ChIP-qPCR signal [3]: AF9 signal increases with increasing concentrations of crotonate
AF9 (F59A) ChIP-qPCR signal, crotonate [4]: the F59A mutant is unresponsive
crotonate response in AF9 KO cells (RAW264.7 cells, AF9 KO): significantly reduced response; also recorded: significantly reduced the crotonate response in our model system, but did not abolish it completely
FLAG-AF9 ChIP-seq signal ([5]; metagene analysis): FLAG-AF9 signal was higher with crotonate treatment only for crotonate responsive genes
mean fold-change in FLAG-AF9 RPKM, crotonate unresponsive genes ([5]; ± 1kb TSS, 233 genes): 0.92 fold
effect on crotonyl-CoA and acetyl-CoA ([6]; cellular concentrations): selectively increases cellular concentrations of crotonyl-CoA, the high-energy donor of crotonyl, while leaving acetyl-CoA, the high-energy donor of acetyl, unaffected
effect on Kcr vs Kac [6]: specifically enhances Kcr, and does not significantly affect Kac
rescue of crotonate response, AF9 (F59A) addback [7]: not mutant AF9 (F59A) rescued this reduction
rescue of crotonate response, wild type AF9 addback [8]: addback of wild type AF9 but not mutant AF9 (F59A) rescued this reduction
expression of Ccl3 (non-responsive gene) [9]: unaffected by crotonate pre-treatment

histone H3_(1–15)K9ac peptide (from UniProt P68431 2-16)
Kd [2]: 5 µM

H3K18pr peptide (acylation series of Figure 4C)
fold reduced affinity against H3K18ac [1]: 4 fold
